# Earlier results as cited in patent US10092495B2, “Use of a composition comprising avocado perseose in the protection of epidermal stem cells” (LABORATOIRES EXPANSCIENCE, priority 2013, dated 2018).
# Tested on: Ehrlich ascites tumor cells
# Conditions: perseitol associated with a potassium ion
smiles,measurement,value
"OCC(O)C(O)C(O)C(O)C(O)CO (stereo not shown) [perseitol, Perseitol]",incorporation of 3H-leucine,inhibit
